Data reported in patent US12398121B2 (Nuvation Bio Inc., priority 2018, dated 2025).
Read-outs that look alike come from different tables or passages of the source.

How the values were obtained:
[1] = target: Human recombinant PARP2 (Homo sapiens, UniProt Q9UGN5); assay: RBC HotSpot PARP2 radioisotope-based filter binding assay; assay type: biochemical
Method: The following methods are for evaluating the in vitro biology properties of the test articles. • a. RBC HotSpot Poly(ADP-ribose) Polymerases 1 (PARP1) and Poly(ADP-ribose) Polymerases 2 (PARP2) Assays: The assay principle is radioisotope-based filter binding assay where incorporation of radioisotope-labeled NAD^+ into the substrate captured on filter is detected after washout free NAD^+. Data were analyzed using Excel and GraphPad Prism software for IC50 curve fits. Each assay was conducted with PJ34 as a positive control. • i. PARP1 assay: Human recombinant PARP1 at a final concentration of 2.5 nM was combined with histone H4 (20 μM) and test articles at various concentrations in reaction buffer (50 mM Tris-HCL, pH 8.0, 50 mM NaCl, 10 mM MgCl2, 1 mM DTT, 1% DMSO, and 20 μg/mL activated DNA). The solution was inoculated for 20 min at room temperature and the reaction initiated by adding [adenylate-^32P]-Nicotinamide Adenine Dinucleotide, ^32P-NAD^+ at a final concentration of 10 μM. After incubation for 2 hour at room temperature, the reaction mixture was filtered and washed with 0.75% phosphoric acid for radioactivity detection. • ii. PARP2 assay: Human recombinant PARP2 at a final concentration of 2.5 nM was combined with histone H3 (20 μM) and test articles at various concentrations in reaction buffer (50 mM Tris-HCL, pH 8.0, 50 mM NaCl, 10 mM MgCl2, 1 mM DTT, 1% DMSO, and 20 μg/mL activated DNA). The solution was inoculated for 20 min at room temperature and the reaction was initiated by adding [adenylate-^32P]-Nicotinamide Adenine Dinucleotide, ^32P-NAD^+ at a final concentration of 10 μM. After incubation for 2 hour at room temperature, the reaction mixture was filtered and washed with 0.75% phosphoric acid for radioactivity detection. • b. AR binding assay: AR in LNCaP cytosol was used for determining the binding affinity of test articles and the reference compound—progesterone (Sigma, Cat: E2785, St. Louis, MO). IC50s were determined using 8 concentrations/compound. Cytosol was plated at 200 μg/well (100 μL) into a 96-well conical polypropylene plate (Agilent, Cat: 5042-1385, Santa Clara, CA) and mixed with 3 μL of test compound. After adding 100 μL of ^3H-methyltrienolone (PerkinElmer, Cat: NET590250UC, San Jose, CA), the plate was sealed and shaken at 300 rpm at 4° C. for 24 hours. Post incubation, 100 μL of radioligand adsorption buffer containing 10 mM Tris-HCl, pH 7.4; 1.5 mM EDTA; 1 mM DTT; 0.25% charcoal; 0.0025% dextran was added to individual well. Plate was shaken for 15 min at 4′C followed by centrifugation at 3000 rpm for 30 min at 4° C. 150 μL of supernatant was transferred into scint-tube (PerkinElmer, Cat: 6000192) and mixed with 2 mL of Ultima Gold Cocktail (PerkinElmer, Cat: 6013329). Radioactivity was counted using a TriCarb 2910 TR scintillation counter (PerkinElmer). Inhibition of the radioactivity by test articles were calculated using the equation below: % Inhibition=(1−(Assay well−Average_LC)/(Average_HC−Average_LC))×100%.

[2] = test system: 22RV1 cells; assay: Cell proliferation assay (CellTiter Glo), 22RV1; assay type: cell-based; conditions: Homo sapiens, 22Rv1, 72 h, read-out: 22RV1 IC50
Method: IC50 values were calculated and graphed using the model “log(inhibitor) vs. response—Variable slope” included in GraphPad Prism 5 (San Diego, CA). The Ki values were further calculated using the equation below where [L] was the radioligand concentration (1 nM) using in this study. Kd value was 0.332 nM. Ki=IC50/(1+[L]/Kd) c. AR transactivation: Human AR cloned into a CMV vector backbone was used for the transactivation study. HEK-293 cells were plated at 80,000 cells per well of a 24 well plate in DME+5% csFBS. Twenty four hours later, the cells were transfected using Lipofectamine (Invitrogen, Carlsbad, CA) with 0.25 μg GRE-LUC, 0.01 μg CMV-LUC (renilla luciferase) and 25 ng of the AR in OPTIMEM medium. The cells were treated 24 hrs after transfection with various ligands (10^−12 to 10^−5 M final concentrations) and luciferase assay were performed 48 hours after transfection. Firefly values were normalized to renilla luciferase values and the values were represented as relative light units (RLU). Agonist and antagonist assays for the test article were performed in the absence and in the combination with 0.1 nM R1881, respectively. Data were represented as EC50 (for agonists) and IC50 (for antagonists) obtained from four parameter logistics curve. Cell culture and proliferation assays: LNCaP, PC-3, 22RV1, MCF-7, HT-29, and HCT-116 cells were procured from American Type Culture Collection (ATCC). Cells were cultured in medium recommended by the ATCC. Cell culture medium was obtained from Fisher scientific (Waltham, MA) and serum was obtained from Hyclone (San Angelo, TX).
Cells were plated at varying density in the respective growth medium in 96 well plates. 24 hr later, cells were treated, in triplicate or quadruplicate, with test articles prepared in a range of concentrations by series dilution of DMSO stock solutions in growth medium and incubated for three to seven days. The number of viable 22RV1 and HT-29 cells was measured using CellTiter Glo assay (CTG, Promega, Madison, WI) after three days of treatment. The other types of cancer cells were re-treated at three or four days and the number of viable cells was measured using CTG assay after a total treatment time of six or seven days. Cell viability data were plotted using GraphPad Prism (GraphPad Software, Inc., San Diego, CA). In addition, a nonlinear regression model with a sigmoidal dose response and variable slope within GraphPad Prism was used to calculate the IC50 value of individual test articles. Additional cell proliferation assays: Other cancer cell lines are tested in a cell proliferation assay. For example, SK-OV-3 or OVCAR3 ovarian cancer cells are tested. Cells are cultured in medium recommended by the supplier (e.g., ATCC or JCRB Cell Bank), at 37° C. in a 5% CO2 environment. For the proliferation assay, cells are plated in the growth medium in 96 well plates. Seeding density is adjusted according to the cell type. 24 hr later, cells are treated, in triplicate or quadruplicate, with test articles prepared in a range of concentrations by series dilution of DMSO stock solutions in growth medium, and typically incubated for three to seven days, with test article-containing medium replaced after three or four days. The number of viable cells is measured using CellTiter Glo assay (CTG, Promega, Madison, WI) or similar. Cell viability data are plotted using GraphPad Prism (GraphPad Software, Inc., San Diego, CA). In addition, a nonlinear regression model with a sigmoidal dose response and variable slope within GraphPad Prism is used to calculate the IC50 value of individual test articles. Similarly, HEK-293 and HeLa calls can also be tested by methods known in the art. • f. Nuclear translocation: LNCaP cells are plated on coverslips in 24 well plates in growth medium. Twenty-four hours after plating, medium is changed to RPMI+1% csFBS and the cells are maintained in this medium for two days. Medium is replaced again and the cells are treated. […]

[3] = 2.5 nM enzyme, histone H3, 10 μM 32P-NAD+, read-out: PARP2 IC50
[4] = cell growth inhibition, three days of treatment

Human recombinant PARP2, sequence (Q9UGN5 whole entry): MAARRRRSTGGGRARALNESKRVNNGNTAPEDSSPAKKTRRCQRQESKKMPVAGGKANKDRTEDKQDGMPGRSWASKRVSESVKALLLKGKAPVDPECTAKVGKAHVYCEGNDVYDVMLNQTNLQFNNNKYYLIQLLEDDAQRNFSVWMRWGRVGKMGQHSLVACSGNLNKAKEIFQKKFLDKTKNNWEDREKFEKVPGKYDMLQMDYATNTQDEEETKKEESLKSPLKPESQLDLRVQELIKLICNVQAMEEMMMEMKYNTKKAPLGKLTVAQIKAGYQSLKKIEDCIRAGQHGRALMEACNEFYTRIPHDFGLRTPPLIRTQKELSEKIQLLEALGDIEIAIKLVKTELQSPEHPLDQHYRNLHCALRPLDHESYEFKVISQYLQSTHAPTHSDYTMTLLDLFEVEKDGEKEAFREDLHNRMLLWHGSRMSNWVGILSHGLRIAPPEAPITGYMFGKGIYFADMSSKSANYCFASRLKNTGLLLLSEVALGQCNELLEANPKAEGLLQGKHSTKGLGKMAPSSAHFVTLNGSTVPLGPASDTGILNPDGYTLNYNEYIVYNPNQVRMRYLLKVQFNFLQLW

Row | SMILES | IC50 [1] | IC50 [2] | IC50 [1, 3] | IC50 [2, 4]
1 | C[C@](O)(CS(=O)(=O)c1ccc(NCCN2CCN(C(=O)c3cc(Cc4n[nH]c(=O)c5ccccc45)ccc3F)CC2)cc1)C(=O)Nc1ccc(C#N)c(C(F)(F)F)c1 [Compound 1.99, (R)-N-(4-cyano-3-(trifluoromethyl)phenyl)-3-(4-(2-(4-(2-fluoro-5-((4-oxo-3,4-dihydrophthalazin-1-yl)methyl)benzoyl)piperazin-1-yl)ethylamino)phenylsulfonyl)-2-hydroxy-2-methylpropanamide] | 0.2 nM | 3600 nM |  | 
2 | C[C@]12CCC(=O)C[C@@H]1CC[C@@H]1[C@@H]2CC[C@]2(C)[C@@H](OCCOCC(=O)N3CCN(C(=O)c4cc(Cc5n[nH]c(=O)c6ccccc56)ccc4F)CC3)CC[C@@H]12 [Compound 1.104, 4-(3-(4-(2-(2-((5S,8R,9S,10S,13S,14S,17S)-10,13-dimethyl-3-oxohexadeca hydro-1H-cyclopenta[a]phenanthren-17-yloxy)ethoxy)acetyl)piperazine-1-carbonyl)-4-fluorobenzyl)phthalazin-1(2H)-one] |  |  | 0.3 nM | 1100 nM
3 | C[C@]12CCC(=O)C[C@@H]1CC[C@@H]1[C@@H]2CC[C@@]2(C)[C@H]1CC[C@@]2(O)c1cn(CC(=O)N2CCN(C(=O)c3cc(Cc4n[nH]c(=O)c5ccccc45)ccc3F)CC2)nn1 [Compound 1.107, 4-(4-fluoro-3-(4-(2-(4-((5S,8R,9S,10S,13S,14S,17S)-17-hydroxy-10,13-dimethyl-3-oxohexadecahydro-1H-cyclopenta[a]phenanthren-17-yl)-1H-1,2,3-triazol-1-yl)acetyl)piperazine-1-carbonyl)benzyl)phthalazin-1(2H)-one] |  |  | 0.1 nM | 1300 nM
4 | C[C@]12CCC(=O)C[C@@H]1CC[C@@H]1[C@@H]2CC[C@]2(C)[C@@H](OCC(=O)N3CCN(C(=O)c4cc(Cc5n[nH]c(=O)c6ccccc56)ccc4F)CC3)CC[C@@H]12 [Compound 1.110, 4-(3-(4-(2-((5S,8R,9S,10S,13S,14S,17S)-10,13-dimethyl-3-oxohexadecahydro-1H-cyclopenta[a]phenanthren-17-yloxy)acetyl)piperazine-1-carbonyl)-4-fluorobenzyl)phthalazin-1(2H)-one] |  |  | 0.2 nM | 840 nM
5 | C[C@]12CCC(O)C[C@@H]1CC[C@@H]1[C@@H]2CC[C@]2(C)[C@@H](OCCCCCC(=O)N3CCN(C(=O)c4cc(Cc5n[nH]c(=O)c6ccccc56)ccc4F)CC3)CC[C@@H]12 (stereo partly drawn) [Compound 1.111, 4-(4-fluoro-3-(4-(6-((5S,8R,9S,10S,13S,14S,17S)-3-hydroxy-10,13-dimethylhexadecahydro-1H-cyclopenta[a]phenanthren-17-yloxy)hexanoyl)piperazine-1-carbonyl)benzyl)phthalazin-1(2H)-one] |  |  | 0.2 nM | 890 nM
6 | C[C@]12CCC(F)(F)C[C@@H]1CC[C@@H]1[C@@H]2CC[C@]2(C)[C@@H](OCCCCCC(=O)N3CCN(C(=O)c4cc(Cc5n[nH]c(=O)c6ccccc56)ccc4F)CC3)CC[C@@H]12 [Compound 1.114, 4-(3-(4-(6-((5S,8R,9S,10S,13S,14S,17S)-3,3-difluoro-10,13-dimethylhexadecahydro-1H-cyclopenta[a]phenanthren-17-yloxy)hexanoyl)piperazine-1-carbonyl)-4-fluorobenzyl)phthalazin-1(2H)-one] |  |  | 1.9 nM | 1300 nM
7 | C[C@]12CCC(=O)C[C@@H]1CC[C@@H]1[C@@H]2CC[C@@]2(C)[C@H]1CC[C@@]2(O)C#CC(=O)N1CCN(C(=O)c2cc(Cc3n[nH]c(=O)c4ccccc34)ccc2F)CC1 [Compound 1.116, 4-(4-fluoro-3-(4-(3-((5S,8R,9S,10S,13S,14S,17S)-17-hydroxy-10,13-dimethyl-3-oxohexadecahydro-1H-cyclopenta[a]phenanthren-17-yl)propioloyl)piperazine-1-carbonyl)benzyl)phthalazin-1(2H)-one] |  |  | 0.2 nM | 2600 nM
8 | C[C@]12CCC(=O)C[C@@H]1CC[C@@H]1[C@@H]2CC[C@@]2(C)[C@H]1CC[C@@]2(O)C#CCN1CCN(C(=O)c2cc(Cc3n[nH]c(=O)c4ccccc34)ccc2F)CC1 [Compound 1.118, 4-(4-fluoro-3-(4-(3-((5S,8R,9S,10S,13S,14S,17S)-17-hydroxy-10,13-dimethyl-3-oxohexadecahydro-1H-cyclopenta[a]phenanthren-17-yl)prop-2-ynyl)piperazine-1-carbonyl)benzyl)phthalazin-1(2H)-one] |  |  | 1 nM | 9700 nM
9 | C[C@]12CCC(=O)C[C@@H]1CC[C@@H]1[C@@H]2CC[C@@]2(C)[C@H]1CC[C@@]2(O)CCCN1CCN(C(=O)c2cc(Cc3n[nH]c(=O)c4ccccc34)ccc2F)CC1 [Compound 1.119, 4-(4-fluoro-3-(4-(3-((5S,8R,9S,10S,13S,14S,17R)-17-hydroxy-10,13-dimethyl-3-oxohexadecahydro-1H-cyclopenta[a]phenanthren-17-yl)propyl)piperazine-1-carbonyl)benzyl)phthalazin-1(2H)-one] |  | 2900 nM | 0.3 nM | 
